{"source": "patent US20250302816A1", "about": "“DISRUPTION OF EPITHELIAL BARRIERS FOR MOLECULAR DELIVERY ENHANCEMENT OR EXTRACTION OF EXTRACELLULAR FLUIDS” (The University of Nottingham, priority 2022, published 2025)", "assay_type_in_all_cases": "cell-based, human", "key": {"[1]": {"system": "Calu-3 cell layers", "details": "3OC12-HSL 200 μM", "method": "FIG. 2: Macromolecular therapeutics transported across Calu-3 cell layers in the absence (dashed line) and presence (line) of 3OC12-HSL transported into the basolateral chamber over a period of five hours. Permeability experiments were initiated by applying 0.5 ml of the solutions (250 μg/ml Aflibercept/Bevacizumab/or Doxorubicin diluted in HBSS/HEPES) to the apical side of the cells (donor compartment of the Transwell) with or without 3OC12-HSL (200 μM). Drug permeability was determined by sampling the basolateral solution at regular time intervals. Data points are expressed as means±SEM, derived from three replicates in triplicate. p values of <0.05 were considered statistically significant. *, ** and *** denote p<0.05, p<0.01 and p<0.001, respectively.\nCalu-3 cells obtained from American Type Culture Collection, USA were cultured using Dulbecco's Modified Eagle Medium (DMEM) supplemented with penicillin (100 U/mL), streptomycin (0.1 mg/mL), amphotericin (0.25 μg/mL), non-essential amino acids (NEM, 1%) and Fetal Bovine Serum (FBS, 10% v/v, Sigma-Aldrich, UK). The human-derived RPE cell line ARPE-19 was obtained from American Type Culture Collection. […]\nThree polarised epithelial in-vitro tissue models, including lung epithelium (Calu-3), retinal pigment epithelium (ARPE-19) and intestinal epithelial (Caco-2) were used to study the efficiency of 200 μM 3OC12-HSL as a paracellular permeability enhancer for three different drugs: bevacizumab, aflibercept and doxorubicin (applied concentrations 250 μg/mL). The amount of drugs transported was determined via the conversion of fluorescence intensity to amount (μg or ng), using calibration curves constructed via serial standard dilutions. […]\nPermeability experiments were initiated by applying 0.5 mL of the test solutions to the apical side of the cells (donor compartment of the Transwell®). […] Drug permeability was determined by sampling the basolateral solution at regular time intervals. […]"}, "[2]": {"system": "Calu-3 cells", "experiment": "MTS assay of metabolic activity / cell viability", "details": "5 nM to 200 μM, 6 hours", "procedure": "To assess 3OC12-HSL and C7 PQS molecules cytotoxicity on cell viability of Calu-3 cell layers and to monitor short-term cytotoxicity during experiments, Calu-3 cells were treated with 3OC12-HSL and C7 PQS, at concentrations 5 nM, 1 μM, 50 μM, 100 μM and 200 μM, for 6 hours. At the end of the treatment, cell viability (through measuring metabolic activity) of cultures was determined by chromogenic MTS assay.\nThe viability of Calu-3 cells was determined by a chromogenic MTS method based on the measuring of mitochondrial respiration, assessed by the reduction of 3-(4,5-dimethylthiazol-2-yl)-5-(3-carboxymethoxyphenyl)-2-(4-sulfophenyl)-2H-tetrazolium to formazan. Calu-3 cells were cultured in a 96-well plate (CellTiter 96® Aqueous, Promega) at a density of 10^4 cells per well and incubated at 37° C., 5% CO2 for 24 hours. After 24 hours, the medium was replaced with 100 μl of test compounds dissolved in HBSS and then cells were incubated for 6 hours. HBSS and Triton X-100 (0.1% v/v in HBSS) were used as the negative and positive controls respectively. Bathing solutions were then aspirated and cells washed with PBS. Then culture medium (100 μl at 37° C.) plus MTS reagent (20 μl) were added into each well and cells were incubated for 2 hours. Absorbance at 492 was measured using a Dynex absorbance microplate reader (Dynex Technologies, USA) and converted into a percentage metabolic rate."}, "[3]": {"system": "Calu-3 cell layers", "experiment": "FD4 permeability and TEER of polarised Calu-3 cell layers"}, "[4]": {"system": "ZO-1", "experiment": "ZO-1 immunostaining and confocal microscopy of Calu-3 cell layers", "details": "200 μM, one hour, vs vehicle 0.15% DMSO", "method": "To visualise the effect of 3OC12-HSL and C7 PQS on tight junction integrity in Calu-3 cell layers, ZO-1, immunostaining and confocal microscopy was performed on cell layers treated by 200 μM 3OC12-HSL and C7 PQS and control (0.15% DMSO in HBSS) for one hour. Confluent cell monolayers were washed with PBS and fixed in 4% paraformaldehyde in PBS for approximately 10 min at room temperature. Cells were then washed 3 times with PBS and permeabilised by incubating with Triton X-100 (0.1% v/v in PBS) for 10 min. Cells were then washed with PBS, followed by the application of 1% BSA/PBS for approximately 1 hour. Thereafter, BSA/PBS solution was aspirated and replaced with mouse, anti-human ZO-1 (primary) antibody, diluted in 1% BSA/PBS to a final concentration of 100 μg/ml. Cell samples were incubated with the primary antibody for 2 hours. The primary antibody solution was then removed and cells washed with PBS (5 times). FITC-labelled goat, anti-mouse (secondary) antibody, diluted according to manufacturer's instructions in 1% BSA/PBS was then applied to the cells for 1 hour. The secondary antibody solution was then aspirated and cells washed with PBS three times. […]"}, "[5]": {"system": "Calu-3 cell layer", "experiment": "Delivery of siRNA across Calu-3 cell layer (Transwell)", "details": "200 μM", "method": "FIG. 10: Delivery of siRNA (19 bases) across Calu-3 cell layer is enhanced in the presence of 30C12 HSL (200 μM) assessed as recovered fraction from the basolateral chamber of a Transwell."}}}
{"smiles": "CCCCCCCCCC(=O)CC(=O)N[C@H]1CCOC1=O", "note": "[Agent 3OC12-HSL, N-(3-oxododecanoyl) homoserine lactone]", "values": [{"measurement": "enhancement of aflibercept transport by 3OC12-HSL", "setting": "[1]; aflibercept 250 μg/ml", "result": 18, "unit": "fold"}, {"measurement": "enhancement of bevacizumab transport by 3OC12-HSL", "setting": "[1]; bevacizumab 250 μg/ml", "result": 10, "unit": "fold"}, {"measurement": "enhancement of doxorubicin transport by 3OC12-HSL", "setting": "[1]; doxorubicin 250 μg/ml, after 5 hours", "result": 17, "unit": "fold"}, {"measurement": "cytotoxic effect on cell viability within epithelial layers", "setting": "[2]", "result": "do not have an adverse cytotoxic effect"}, {"measurement": "paracellular passage / flux of FD4 from apical to basolateral chamber", "setting": "[3]; 200 μM (3OC12-HSL: 200 μM or 1 μM)", "result": "increased paracellular passage of FD4"}, {"measurement": "effect on TEER compared to vehicle only", "setting": "[3]; 200 μM or 1 μM in 0.15% DMSO in HBSS, p<0.001", "result": "reduced TEER significantly"}, {"measurement": "time after which TEER started increasing / cell layer integrity began to recover", "setting": "[3]; during exposure", "result": 4, "unit": "h"}, {"measurement": "TEER after 7 hours", "setting": "[3]; recovery during exposure", "result": "520+/−20 Ω·cm^2"}, {"measurement": "time at which flux of FD4 peaked", "setting": "[3]; then continued increasing slowly for four hours", "result": 30, "unit": "min"}, {"measurement": "ZO-1 distribution at tight junctions", "setting": "[4]", "result": "considerable dislocation of ZO-1 proteins"}, {"measurement": "delivery of siRNA (19 bases) across cell layer, recovered fraction from basolateral chamber", "setting": "[5]", "result": "enhanced"}]}
